Test results published in US4937237A, “Phosphinic acid substituted aromatic steroids as inhibitors of steroid 5-60 -reductase” (SmithKline Beckman Corporation, priority 1988, dated 1990).
Where two headings read alike, the source gives them in different places.

What was measured:
[1] = biological target: 5-α-Reductase; details: cited from earlier work; for Ki / Reversibility of inhibition (with Ki): Table I; for Type of inhibition of steroid 5-α-reductase, in words: literature
[2] = test system: human steroid 5-α-reductase; details: substrate (testosterone), separate experiment
[3] = biological target: T1, human steroid 5-α-reductase (Homo sapiens, UniProt P31213); experiment: Potency in inhibiting human steroid 5-α-reductase from hyperplastic human prostates ([14C]-testosterone conversion, Dixon plot); type: biochemical
T1 construct: Frozen human prostates were thawed and minced into small pieces; from tissue; host or cells: hyperplastic human prostate, 140,000×g particulate fraction
T1 sequence (P31213 1-254): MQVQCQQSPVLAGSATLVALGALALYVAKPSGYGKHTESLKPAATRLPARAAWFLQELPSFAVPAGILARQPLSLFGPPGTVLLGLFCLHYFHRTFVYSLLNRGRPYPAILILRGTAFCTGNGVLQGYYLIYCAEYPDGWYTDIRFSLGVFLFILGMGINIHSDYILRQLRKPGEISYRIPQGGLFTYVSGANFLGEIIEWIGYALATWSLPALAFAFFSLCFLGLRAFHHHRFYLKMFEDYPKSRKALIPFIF
Experimental: A compound of the invention, 17β-(N,N-diisopropylcarboxamide)-estr-1,3,5(10)-triene-3-phosphinic acid, was tested for potency in inhibiting human steroid 5-α-reductase using tissue from hyperplastic human prostates. In determining potency in inhibiting the human enzyme, the following procedure was employed:
Frozen human prostates were thawed and minced into small pieces (5 mm^3). The tissue was homogenized in 3 to 5 volumes of 20 mM potassium phosphate buffer, pH 6.5, containing 0.33M sucrose, 1 mM dithiothreitol, and 50 μM NADPH with a Brinkmann Polytron (Sybron Corporation, Westbury, N.Y.). The solution was subjected to sonication for 3 to 5 minutes with a Sonifier (Branson Sonic Power Co.) followed by hand homogenization in a glass-to-glass Dounce homogenizer (Kontes Glass Company, Vineland, N.J.). […]
A constant amount of [^14 C]-testosterone (52 to 55 mCi/mmol, New England Nuclear, Boston, MA) in ethanol and varying amounts of the potential inhibitor in ethanol were deposited in test tubes and concentrated to dryness in a SAVANT Speed Vac. […] The radiochemical content in the bands of the substrate and the products was determined with a BIOSCAN Imaging Scanner (Bioscan, Inc., Washington, D.C.). The percent of recovered radiolabel converted to product was calculated, from which enzyme activity was determined. […]

Structure (SMILES) | Reversibility of inhibition (with Ki) ([1]; literature references) | Ki ([1]; literature references) [nM] | also measured
CC(CO)[C@H]1CC[C@H]2[C@@H]3CC[C@H]4C(=[N+]=[N-])C(=O)CC[C@]4(C)[C@H]3CC[C@]12C (stereo partly drawn) [(3)] | Irreversible | – | Ki ([1]; literature reference, unit inferred): 35 nM; Type of inhibition of steroid 5-α-reductase, in words [1]: potent, time-dependent inhibitor
C[C@]12CC[C@H]3[C@@H](CCC4=CC(=O)CC[C@@]43C)[C@@H]1CC[C@@H]2O [testosterone] | – | – | Km [2]: 4.5 µM
CC(C)N(C(=O)[C@H]1CC[C@H]2[C@@H]3CCc4cc([PH](=O)O)ccc4[C@H]3CC[C@]12C)C(C)C [17β-(N,N-Diisopropylcarboxamide)-estr-1,3,5(10)-triene-3-phosphinic Acid] | – | – | Ki [3]: 13 nM; Potency as inhibitor of human steroid 5-α-reductase, in words ([3]; concluded from low Ki): potent inhibitor
C=C1C[C@@H]2[C@H](CC[C@@]3(C)[C@H]2CC[C@]3(OC(C)=O)C(C)=O)[C@@]2(C)CCC(=O)C=C12 [(5)] | Irreversible | 1250 | Type of inhibition of steroid 5-α-reductase, in words [1]: time-dependent inactivator
C[C@]12CC[C@H]3[C@@H](CCC4=CC(=O)CC[C@@]43C)[C@@H]1CC[C@@H]2C(=O)O [(1)] | Reversible | 1100 | –
CCN(CC)C(=O)[C@H]1CC[C@H]2[C@@H]3CC[C@H]4N(C)C(=O)CC[C@]4(C)[C@H]3CC[C@]12C [(4)] | Reversible | 5 | –
CC(=O)C1CCC2C3CC=C=CC(=O)CCC(=O)C3CCC12C (stereo not drawn) [(2)] | Irreversible | 1000 | –
